Measurements reported in BigSolDB 2.1.

O=C1NS(=O)(=O)c2ccccc21
solubility (mole fraction)
Conditions	293.15 K	298.15 K	303.15 K	308.15 K	313.15 K	318.15 K	323.15 K
in acetonitrile	0.00739	0.00809	0.00936	0.0105	0.012	0.0143	0.0157
in ethanol	0.00821	0.00924	0.0108	0.0121	0.0144	0.0169	0.0196
in isopropanol	0.00792	0.00942	0.011	0.013	0.016	0.0193	0.0231
in methanol	0.00927	0.0102	0.012	0.0136	0.0161	0.0187	0.0218
